Tests used:
Assay in all cases: Direct CYP inhibition assay, pooled human liver microsomes, LC-MS/MS
Type in all cases: in vitro ADME
CYP2B6 = biological target: T1, CYP2B6 (Homo sapiens, UniProt P20813); details: pooled HLMs, up to 50 μM, bupropion substrate
T1 construct: from tissue; host or cells: pooled human liver microsomes
T1 sequence (P20813 1-491): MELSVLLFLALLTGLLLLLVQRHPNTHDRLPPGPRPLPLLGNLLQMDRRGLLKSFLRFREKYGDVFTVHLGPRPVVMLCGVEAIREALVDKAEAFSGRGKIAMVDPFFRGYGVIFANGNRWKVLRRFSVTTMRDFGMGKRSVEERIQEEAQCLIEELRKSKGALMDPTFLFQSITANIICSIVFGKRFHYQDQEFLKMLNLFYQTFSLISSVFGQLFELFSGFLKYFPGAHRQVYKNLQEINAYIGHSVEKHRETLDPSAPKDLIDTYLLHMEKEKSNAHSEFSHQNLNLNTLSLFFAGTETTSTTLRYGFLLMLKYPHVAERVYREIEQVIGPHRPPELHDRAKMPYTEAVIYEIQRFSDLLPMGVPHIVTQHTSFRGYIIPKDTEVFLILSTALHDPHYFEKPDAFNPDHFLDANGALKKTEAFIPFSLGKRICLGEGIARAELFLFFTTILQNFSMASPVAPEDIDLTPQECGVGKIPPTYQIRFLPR
Description: (§1) Reactions were incubated in eight-well strips placed in an 8 × 12 racks (1.2 ml; VWR, Emeryville, CA). The incubation mixtures (final volume, 200 μL) contained 0.2 mg/mL HLMs, 0.1 M phosphate buffer (pH 7.4), 1 mM NADPH, and various CYP isoform-specific substrate cocktail sets (A set: phenacetin, coumarin, amodiaquine, S-mephenytoin, dextromethorphan, and midazolam; B set: bupropion, tolbutamide, chlorzoxazone, and testosterone). […] Substrates were dissolved and serially diluted with acetonitrile to the required concentration in all experiments. […] The reactions were incubated at 37 °C in a shaking water bath. The reactions were terminated by placing the incubation tubes on ice, adding 200 μL of cold acetonitrile containing carbamazepine (100 nM) and 4-methylumbelliferone (500 nM) as an internal standard after 10 min, and agitating with a vortex mixer before centrifugation. The samples for each enzyme assay were centrifuged at 3,000 × g for 20 min at 4 °C, and supernatants of the individual reaction samples and pooled cocktail incubation samples (A set: B set, 1:1) were analysed using LC-MS/MS.
(§2) Sample injection volume was 10 μL, and separation was performed on an Atlantis™ dC18 column (2.1 × 50 mm i.d., 3 μm; Waters, Milford, MA, USA) and Luna™5u C18 column (2.0 × 30 mm i.d.; Phenomenex, Torrance, CA, USA) with a SecurityGuard™ C18 guard column (2.0 × 4.0 mm i.d.; Phenomenex, Torrance, CA, USA) maintained at 30 °C. The column was pre-equilibrated in 100% v/v solvent A (deionized water containing 0.1% v/v formic acid)/0% v/v solvent B (acetonitrile containing 0.1% v/v formic acid) at a flow rate of 0.4 ml/min. […] Quadrupoles Q1 and Q3 were set on unit resolution. The samples were analysed via multiple reaction monitoring (MRM) and enhanced product ion (EPI) scan mode. The turbo ion spray interface was operated in the positive ion mode at 5,500 V. The operating conditions were determined as follows: ion source temperature, 600 °C; nebulising gas flow, 50 L/min; auxiliary gas flow, 4.0 L/min; curtain gas flow, 20 L/min; collision gas (nitrogen) pressure 3.6 × 10^−5 Torr. Nitrogen gas was used for CUR, CAD, and NEB. The MRM transitions, collision energies and retention time were determined for each metabolite. The samples were analysed via MRM as described in our previous study. The scan dwell time was set at 0.08 s for every channel. Data acquisition and analysis was performed using the Analyst™ software (version 1.5.2; Applied Biosystems, Foster City, CA, USA).

CYP2A6 = biological target: T2, CYP2A6 (Homo sapiens, UniProt P11509); details: pooled HLMs, up to 50 μM, coumarin substrate
T2 construct: from tissue; host or cells: pooled human liver microsomes
T2 sequence (P11509 1-494): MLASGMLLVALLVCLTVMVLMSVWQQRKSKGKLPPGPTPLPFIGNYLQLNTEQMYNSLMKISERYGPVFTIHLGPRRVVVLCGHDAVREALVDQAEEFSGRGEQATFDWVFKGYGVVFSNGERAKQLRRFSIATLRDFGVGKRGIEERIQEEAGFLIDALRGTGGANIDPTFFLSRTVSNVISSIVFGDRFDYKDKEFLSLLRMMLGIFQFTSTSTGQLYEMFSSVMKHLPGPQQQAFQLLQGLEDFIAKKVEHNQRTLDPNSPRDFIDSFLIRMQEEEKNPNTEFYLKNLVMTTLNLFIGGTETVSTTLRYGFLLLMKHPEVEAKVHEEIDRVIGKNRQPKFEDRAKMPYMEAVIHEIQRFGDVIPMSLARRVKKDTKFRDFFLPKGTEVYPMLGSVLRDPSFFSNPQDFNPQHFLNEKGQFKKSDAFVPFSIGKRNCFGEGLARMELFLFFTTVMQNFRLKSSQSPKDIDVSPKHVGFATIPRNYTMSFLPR
Description: as §1, §2

CYP1A2 = biological target: T3, CYP1A2 (Homo sapiens, UniProt P05177); details: pooled HLMs, up to 50 μM, phenacetin substrate
T3 construct: from tissue; host or cells: pooled human liver microsomes
T3 sequence (P05177 1-516): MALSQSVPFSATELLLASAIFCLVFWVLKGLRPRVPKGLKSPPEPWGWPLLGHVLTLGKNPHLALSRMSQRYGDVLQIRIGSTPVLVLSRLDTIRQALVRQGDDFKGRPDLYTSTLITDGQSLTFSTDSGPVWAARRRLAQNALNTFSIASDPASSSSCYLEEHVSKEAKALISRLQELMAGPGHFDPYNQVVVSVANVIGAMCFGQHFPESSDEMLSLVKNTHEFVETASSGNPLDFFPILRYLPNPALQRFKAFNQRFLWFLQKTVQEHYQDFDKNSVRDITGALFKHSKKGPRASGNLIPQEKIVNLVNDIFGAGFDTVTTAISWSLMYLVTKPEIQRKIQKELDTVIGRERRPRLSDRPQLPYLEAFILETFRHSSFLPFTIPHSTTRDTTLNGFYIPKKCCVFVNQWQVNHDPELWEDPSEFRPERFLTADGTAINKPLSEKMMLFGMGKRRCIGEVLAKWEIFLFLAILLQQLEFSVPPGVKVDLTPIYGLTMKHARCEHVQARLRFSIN
Description: as §1, §2

O=[N+]([O-])c1ccc(CNc2nc(NCc3cccc(C(F)(F)F)c3)nc3[nH]cnc23)cc1 [TNP, N^6-[(4-nitrophenyl)methyl]-N^2-[[3-(trifluoromethyl)phenyl]methyl]-9H-purine-2,6-diamine]
no inhibitory effect: inhibitory effect on CYP2B6 (CYP2B6) | inhibitory effect on CYP2A6 (CYP2A6) | inhibitory effect on CYP1A2 (CYP1A2)

From article PMC8667942 (Journal of Enzyme Inhibition and Medicinal Chemistry, 2021)
